Test results as given in patent US11612606B2, “8-aminoisoquinoline compounds and uses thereof” (priority 2018, dated 2023).

Biological target: HPK full length, T165E S171E (Homo sapiens (Human), UniProt Q92918, S171E/T165E)
Assay: HPK1-FL HTRF enzymatic assay ("HTRF")
Type: biochemical
Conditions: ATP 1 mM, read-out: HPK1 Ki
Protocol: Assay Principle: HPK-FL enzyme phosphorylates Biotin-SLP-76 substrate in the presence of ATP at […] and varying concentrations of test compound. Product is detected by FRET using Eu-anti-pSLP76 Ab and SA-XL665. Also see www.cisbio.com/HTRF for additional HTRF technology information.
Instrumentation: Echo555 compound dispenser; Agilent Bravo; Perkin Elmer Envision.
To a 384 well Proxiplate with 80 nL compound or DMSO spotted on was added 4 μl/well kinase mix. The mixture was preincubated for 30 minutes and then 4 μl/well substrate mix was added. The solution was incubated for 60 min and then 4 μl/well detection mix was added. The solution was incubated for another 60 min.
Exemplary compounds were tested in the HTRF binding assays.

Chain of HPK full length, T165E S171E (Q92918 whole entry T165E/S171E, looked up): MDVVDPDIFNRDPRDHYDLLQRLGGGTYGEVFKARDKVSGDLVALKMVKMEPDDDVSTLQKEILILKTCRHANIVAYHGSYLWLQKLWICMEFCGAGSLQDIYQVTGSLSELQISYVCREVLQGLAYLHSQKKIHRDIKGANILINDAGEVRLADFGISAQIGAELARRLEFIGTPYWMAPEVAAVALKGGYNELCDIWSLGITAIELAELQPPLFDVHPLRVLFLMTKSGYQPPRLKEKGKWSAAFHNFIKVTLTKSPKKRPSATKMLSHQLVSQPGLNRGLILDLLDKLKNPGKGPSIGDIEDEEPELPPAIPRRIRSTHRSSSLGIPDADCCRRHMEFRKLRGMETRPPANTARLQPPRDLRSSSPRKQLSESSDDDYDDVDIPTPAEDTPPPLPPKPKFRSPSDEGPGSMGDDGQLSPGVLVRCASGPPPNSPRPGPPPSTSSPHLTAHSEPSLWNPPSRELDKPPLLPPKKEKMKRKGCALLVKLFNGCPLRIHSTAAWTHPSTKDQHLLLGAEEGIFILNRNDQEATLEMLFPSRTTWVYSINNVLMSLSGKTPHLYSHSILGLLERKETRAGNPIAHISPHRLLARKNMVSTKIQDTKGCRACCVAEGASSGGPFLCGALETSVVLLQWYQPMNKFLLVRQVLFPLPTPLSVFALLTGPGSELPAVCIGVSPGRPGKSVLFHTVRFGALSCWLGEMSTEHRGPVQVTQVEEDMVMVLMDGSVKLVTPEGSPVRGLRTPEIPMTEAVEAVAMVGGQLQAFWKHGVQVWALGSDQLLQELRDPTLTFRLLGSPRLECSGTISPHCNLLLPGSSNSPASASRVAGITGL

Q: With Cc1c(-c2cc3cc(NC(=O)OC4CCOC4)ncc3c(N)c2F)cnc2c1NCCO2 (racemic) [Compound 403, (±)-Tetrahydrofuran-3-yl (8-amino-7-fluoro-6-(8-methyl-2,3-dihydro-1H-pyrido[2,3-b][1,4]oxazin-7-yl)isoquinolin-3-yl)carbamate] as the compound, how does the Ki read?
A: 0.023 nM

Q: Cc1c(-c2cc3cc(NC(=O)O[C@@H]4COC[C@H]4C)ncc3c(N)c2F)cnc2c1NCCO2 (racemic) [Compound 441ab, (±)-trans-4-Methyltetrahydrofuran-3-yl (8-amino-7-fluoro-6-(8-methyl-2,3-dihydro-1H-pyrido[2,3-b][1,4]oxazin-7-yl)isoquinolin-3-yl)carbamate] was tested. Which Ki did it give?
A: 0.037 nM

Q: With Cc1c(-c2cc3cc(NC(=O)O[C@@H]4CCO[C@H]4C)ncc3c(N)c2F)cnc2c1NCCO2 (racemic) [Compound 510a, (2S,3R)-2-methyltetrahydrofuran-3-yl (8-amino-7-fluoro-6-(8-methyl-2,3-dihydro-1H-pyrido[2,3-b][1,4]oxazin-7-yl)isoquinolin-3-yl)carbamate] as the compound, how does the Ki read?
A: 0.395 nM

Q: Which Ki does the source give for Cc1c(-c2cc3cc(NC(=O)O[C@@H]4CCOC4)ncc3c(N)c2F)cnc2c1NCC(CO)C2 (mixture of isomers) [Compound 581a, (R)-Tetrahydrofuran-3-yl (8-amino-7-fluoro-6-(7-(hydroxymethyl)-4-methyl-5,6,7,8-tetrahydro-1,5-naphthyridin-3-yl)isoquinolin-3-yl)carbamate] here?
A: 0.43 nM

Q: How did the Ki turn out when Cc1c(-c2cc3cc(NC(=O)O[C@@H]4CCN(C5COC5)C[C@H]4F)ncc3c(N)c2F)cnc2c1NCCO2 (relative stereo) [Compound 445ab, (+1-)-trans-3-Fluoro-1-(oxetan-3-yl)piperidin-4-yl (8-amino-7-fluoro-6-(8-methyl-2,3-dihydro-1H-pyrido[2,3-b][1,4]oxazin-7-yl)isoquinolin-3-yl)carbamate] was run?
A: < 0.013 nM

Q: How did the Ki turn out when Cc1c(-c2cc3cc(NC(=O)O[C@H]4CO[C@]5(CCN(C)C5)C4)ncc3c(N)c2F)cnc2c1NCCO2 (relative stereo) [Compound 467b, (3R,5R)-7-Methyl-1-oxa-7-azaspiro[4.4]nonan-3-yl(8-amino-7-fluoro-6-(8-methyl-2,3-dihydro-1H-pyrido[2,3-b][1,4]oxazin-7-yl)isoquinolin-3-yl)carbamate] was run?
A: 0.064 nM

Q: Which Ki does the source give for Cc1c(-c2cc3cc(NC(=O)N[C@@H]4CC[C@H]4C#N)ncc3c(N)c2F)cnc2c1NCCO2 (relative stereo) [Compound 712ab, 1-(8-Amino-7-fluoro-6-(8-methyl-2,3-dihydro-1H-pyrido[2,3-b][1,4]oxazin-7-yl)isoquinolin-3-yl)-3-(trans-2-cyanocyclobutyl)urea] here?
A: < 0.013 nM

Q: For Cc1c(-c2cc3cc(NC(=O)N[C@H]4CCC[C@H]4O)ncc3c(N)c2F)cnc2c1NCCO2 (relative stereo) [Compound 728a, 1-[8-Amino-7-fluoro-6-(8-methyl-2,3-dihydro-1H-pyrido[2,3-b][1,4]oxazin-7-yl)-3-isoquinolyl]-3-[(1S,2R)-2-hydroxycyclopentyl]urea], which Ki is on record?
A: < 0.013 nM

Q: Cc1c(-c2cc3cc(NC(=O)O[C@@H]4CCNC4)ncc3c(N)c2F)cnc2c1NCCO2 (single isomer, unassigned) [Compound 405a] was tested. Which Ki did it give?
A: 0.138 nM

Q: With Cc1c(-c2cc3cc(NC(=O)O[C@H]4CCNC4)ncc3c(N)c2F)cnc2c1NCCO2 (single isomer, unassigned) [Compound 405b] as the compound, how does the Ki read?
A: 0.158 nM

Q: For Cc1c(-c2cc3cc(NC(=O)O[C@H]4CCCNC4)ncc3c(N)c2F)cnc2c1NCCO2 (single isomer, unassigned) [Compound 408a], which Ki is on record?
A: 0.089 nM

Q: Which Ki does the source give for Cc1c(-c2cc3cc(NC(=O)O[C@@H]4CCCNC4)ncc3c(N)c2F)cnc2c1NCCO2 (single isomer, unassigned) [Compound 408b] here?
A: 0.069 nM

Q: Cc1c(-c2cc3cc(NC(=O)O[C@H]4CC(=O)N(C)C4)ncc3c(N)c2F)cnc2c1NCCO2 (single isomer, unassigned) [Compound 410a] was tested. Which Ki did it give?
A: 0.167 nM

Q: Which Ki does the source give for Cc1c(-c2cc3cc(NC(=O)O[C@@H]4CC(=O)N(C)C4)ncc3c(N)c2F)cnc2c1NCCO2 (single isomer, unassigned) [Compound 410b] here?
A: 0.029 nM

Q: Cc1c(-c2cc3cc(NC(=O)OC4CCOCC4)ncc3c(N)c2F)cnc2c1[C@@H](O)CCO2 (single isomer, unassigned) [Compound 412a] was tested. Which Ki did it give?
A: 41 nM

Q: Which Ki does the source give for Cc1c(-c2cc3cc(NC(=O)OC4CCOCC4)ncc3c(N)c2F)cnc2c1[C@H](O)CCO2 (single isomer, unassigned) [Compound 412b] here?
A: 0.29 nM

Q: For CC(=O)N[C@H]1CCCC[C@@H]1OC(=O)Nc1cc2cc(-c3cnc4c(c3C)NCCO4)c(F)c(N)c2cn1 (single isomer, unassigned) [Compound 414a], which Ki is on record?
A: 0.59 nM

Q: Which Ki does the source give for CC(=O)N[C@@H]1CCCC[C@H]1OC(=O)Nc1cc2cc(-c3cnc4c(c3C)NCCO4)c(F)c(N)c2cn1 (single isomer, unassigned) [Compound 414b] here?
A: 21 nM

Q: Which Ki does the source give for CN[C@H]1CCCC[C@@H]1OC(=O)Nc1cc2cc(-c3cnc4c(c3C)NCCO4)c(F)c(N)c2cn1 (single isomer, unassigned) [Compound 415a] here?
A: 3 nM

Q: For CN[C@@H]1CCCC[C@H]1OC(=O)Nc1cc2cc(-c3cnc4c(c3C)NCCO4)c(F)c(N)c2cn1 (single isomer, unassigned) [Compound 415b], which Ki is on record?
A: 16 nM

Q: How did the Ki turn out when CC(=O)N1CC[C@@H](OC(=O)Nc2cc3cc(-c4cnc5c(c4C)NCCO5)c(F)c(N)c3cn2)C1 (single isomer, unassigned) [Compound 418a] was run?
A: < 0.013 nM

Q: Cc1c(-c2cc3cc(NC(=O)OC4CCN(C)CC4F)ncc3c(N)c2F)cnc2c1NCCO2 (single isomer, unassigned) [Compound 433] was tested. Which Ki did it give?
A: < 0.013 nM

Q: Which Ki does the source give for CC(=O)N1CC[C@H](OC(=O)Nc2cc3cc(-c4cnc5c(c4C)NCCO5)c(F)c(N)c3cn2)[C@H](F)C1 (single isomer, unassigned) [Compound 437a] here?
A: < 0.013 nM

Q: With CC(=O)N1CC[C@@H](OC(=O)Nc2cc3cc(-c4cnc5c(c4C)NCCO5)c(F)c(N)c3cn2)[C@@H](F)C1 (single isomer, unassigned) [Compound 437b] as the compound, how does the Ki read?
A: 0.054 nM

Q: How did the Ki turn out when Cc1c(-c2cc3cc(NC(=O)OC4C5COCC4CN(C)C5)ncc3c(N)c2F)cnc2c1NCCO2 (single isomer, unassigned) [Compound 439a] was run?
A: < 0.013 nM

Q: Which Ki does the source give for Cc1c(-c2cc3cc(NC(=O)OC4C5COCC4CN(C)C5)ncc3c(N)c2F)cnc2c1NCCO2 (single isomer, unassigned) [Compound 439b] here?
A: 0.48 nM

Q: With Cc1c(-c2cc3cc(NC(=O)O[C@H]4COCCN(C)C4)ncc3c(N)c2F)cnc2c1NCCO2 (single isomer, unassigned) [Compound 440a] as the compound, how does the Ki read?
A: 0.084 nM

Q: How did the Ki turn out when Cc1c(-c2cc3cc(NC(=O)O[C@@H]4COCCN(C)C4)ncc3c(N)c2F)cnc2c1NCCO2 (single isomer, unassigned) [Compound 440b] was run?
A: 0.277 nM

Q: How did the Ki turn out when Cc1c(-c2cc3cc(NC(=O)O[C@@H]4COC[C@H]4C)ncc3c(N)c2F)cnc2c1NCCO2 (single isomer, unassigned) [Compound 441a] was run?
A: < 0.013 nM

Q: For Cc1c(-c2cc3cc(NC(=O)O[C@H]4COC[C@H]4C)ncc3c(N)c2F)cnc2c1NCCO2 (single isomer, unassigned) [Compound 441c], which Ki is on record?
A: 0.16 nM

Q: Which Ki does the source give for Cc1c(-c2cc3cc(NC(=O)O[C@@H]4COC[C@@H]4C)ncc3c(N)c2F)cnc2c1NCCO2 (single isomer, unassigned) [Compound 441d] here?
A: 0.32 nM

Q: Which Ki does the source give for Cc1c(-c2cc3cc(NC(=O)O[C@H]4CN(C)C[C@H]4C)ncc3c(N)c2F)cnc2c1NCCO2 (single isomer, unassigned) [Compound 442b] here?
A: 0.201 nM

Q: Cc1c(-c2cc3cc(NC(=O)O[C@@H]4CN(C)C[C@H]4C)ncc3c(N)c2F)cnc2c1NCCO2 (single isomer, unassigned) [Compound 442c] was tested. Which Ki did it give?
A: 0.154 nM

Q: For Cc1c(-c2cc3cc(NC(=O)O[C@H]4CN(C)C[C@@H]4C)ncc3c(N)c2F)cnc2c1NCCO2 (single isomer, unassigned) [Compound 442d], which Ki is on record?
A: 0.046 nM

Q: With CCc1c(-c2cc3cc(NC(=O)O[C@@H]4CC(=O)N(C)C4)ncc3c(N)c2F)cnc2c1NCCO2 (single isomer, unassigned) [Compound 444a] as the compound, how does the Ki read?
A: < 0.013 nM

Q: How did the Ki turn out when CCc1c(-c2cc3cc(NC(=O)O[C@H]4CC(=O)N(C)C4)ncc3c(N)c2F)cnc2c1NCCO2 (single isomer, unassigned) [Compound 444b] was run?
A: < 0.013 nM

Q: Cc1c(-c2cc3cc(NC(=O)OC[C@@]4(F)CCN(C)C4)ncc3c(N)c2F)cnc2c1NCCO2 (single isomer, unassigned) [Compound 451a] was tested. Which Ki did it give?
A: 0.14 nM

Q: Which Ki does the source give for Cc1c(-c2cc3cc(NC(=O)OC[C@]4(F)CCN(C)C4)ncc3c(N)c2F)cnc2c1NCCO2 (single isomer, unassigned) [Compound 451b] here?
A: < 0.013 nM

Q: Which Ki does the source give for Cc1c(-c2cc3cc(NC(=O)O[C@@H]4CN(C)C[C@@H]4F)ncc3c(N)c2F)cnc2c1NCCO2 (single isomer, unassigned) [Compound 452d] here?
A: < 0.013 nM

Q: How did the Ki turn out when Cc1c(-c2cc3cc(NC(=O)OC4CCOCC4)ncc3c(N)c2F)cnc2c1NCC[C@H]2C (single isomer, unassigned) [Compound 461a] was run?
A: 0.891 nM

Q: With Cc1c(-c2cc3cc(NC(=O)OC4CCOCC4)ncc3c(N)c2F)cnc2c1NCC[C@@H]2C (single isomer, unassigned) [Compound 461b] as the compound, how does the Ki read?
A: 1.01 nM

Q: Cc1c(-c2cc3cc(NC(=O)O[C@@H]4CO[C@@]5(CCN(C)C5)C4)ncc3c(N)c2F)cnc2c1NCCO2 (single isomer, unassigned) [Compound 467a] was tested. Which Ki did it give?
A: 0.031 nM

Q: Which Ki does the source give for Cc1c(-c2cc3cc(NC(=O)O[C@@H]4CO[C@]5(CCN(C)C5)C4)ncc3c(N)c2F)cnc2c1NCCO2 (single isomer, unassigned) [Compound 467c] here?
A: 0.027 nM

Q: How did the Ki turn out when Cc1c(-c2cc3cc(NC(=O)O[C@H]4CO[C@@]5(CCN(C)C5)C4)ncc3c(N)c2F)cnc2c1NCCO2 (single isomer, unassigned) [Compound 467d] was run?
A: < 0.013 nM
